compound: O=C(/C=C/c1ccccc1)NC(NC(=S)Nc1cccc2cccnc12)C(Cl)(Cl)Cl [Salubrinal] + O=C(c1cc(Cc2n[nH]c(=O)c3ccccc23)ccc1F)N1CCN(C(=O)C2CC2)CC1 [Olaparib] (partner 8 µM); experiment: relative viability (nuclei count vs DMSO), 5 days (fraction); higher = more cells survive; settings: first compound 0.8 µM
Outline: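 One day after seeding in 1536-well plates, lung cancer cell lines were dosed by pin tool. Dosing was either single-drug or a fixed anchor-drug dose plus five library-drug doses (not always all listed) in √10 steps. After 5 days, nuclei were stained in one fix-and-stain step and counted on 4× images, and relative viability is the nuclei count of treated wells over that of vehicle wells, given as the median of duplicate plates.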

Cell Line | relative viability
NCI-H1734 | 0.651
NCI-H460 | 0.514
NCI-H2347 | 0.609
SK-LU-1 | 0.476
NCI-H1395 | 0.411
201T | 0.861
NCI-H1915 | 0.257
HCC-827 | 0.647
LXF-289 | 1.25
NCI-H23 | 0.36
NCI-H1299 | 0.993
NCI-H647 | 0.685
CAL-12T | 0.751
NCI-H1651 | 0.208
EPLC-272H | 0.977
NCI-H2228 | 0.969
NCI-H1792 | 0.583
NCI-H1355 | 0.75
NCI-H3122 | 0.566
NCI-H1437 | 0.665
NCI-H1755 | 0.922
NCI-H2023 | 0.435
HCC-15 | 0.784
PC-14 | 0.259
EKVX | 0.884

same assay, conditions: first compound 2.53 µM

Cell Line | relative viability
NCI-H522 | 0.686
NCI-H2342 | 0.432
NCI-H727 | 0.699
NCI-H1650 | 0.751
EBC-1 | 0.604
NCI-H1703 | 0.486
SW 1573 | 0.43
NCI-H838 | 0.789
LCLC-103H | 0.769
NCI-H520 | 0.322
NCI-H2126 | 0.88
EMC-BAC-2 | 0.466
NCI-H2085 | 0.76
Calu-6 | 0.591
HCC-366 | 0.341
NCI-H1666 | 0.711
NCI-H596 | 0.668
LK-2 | 0.773
NCI-H2087 | 0.508
NCI-H358 | 0.558
NCI-H2170 | 0.641
H3255 | 0.526
COR-L23 | 0.315

Cell Line | relative viability
COR-L 105 | 0.662
IA-LM | 0.704
LOU-NH91 | 0.9
ChaGo-K-1 | 0.395
NCI-H1793 | 0.979
NCI-H2405 | 0.822
HOP-62 | 0.456
HCC-44 | 0.957
A549 | 0.31
SK-MES-1 | 0.605
LU99A | 0.24
BEN | 1.04
HARA | 0.682
SW 900 | 0.793
HCC-78 | 0.788
NCI-H322M | 0.675
LCLC-97TM1 | 0.412
NCI-H2009 | 0.685
A-427 | 0.682
NCI-H441 | 0.542
NCI-H661 | 0.73
NCI-H1734 | 0.583
NCI-H460 | 0.355

Cell Line | relative viability
NCI-H2347 | 0.613
SK-LU-1 | 0.454
NCI-H1395 | 0.466
201T | 0.809
NCI-H1915 | 0.28
HCC-827 | 0.629
LXF-289 | 1.14
NCI-H23 | 0.31
NCI-H1299 | 0.951
NCI-H647 | 0.63
CAL-12T | 0.725
NCI-H1651 | 0.152
EPLC-272H | 0.596
NCI-H2228 | 0.555
NCI-H1792 | 0.287
NCI-H1355 | 0.766
NCI-H3122 | 0.664
NCI-H1437 | 0.614
NCI-H1755 | 0.857
NCI-H2023 | 0.373
HCC-15 | 0.702
PC-14 | 0.246
EKVX | 0.852

same assay, conditions: first compound 8 µM

Cell Line | relative viability
NCI-H522 | 0.637
NCI-H2342 | 0.497
NCI-H727 | 0.662
NCI-H1650 | 0.804
EBC-1 | 0.585
NCI-H1703 | 0.385
NCI-H1993 | 1.47
SW 1573 | 0.522
NCI-H838 | 0.716
LCLC-103H | 0.76
NCI-H520 | 0.338
NCI-H2126 | 0.951
EMC-BAC-2 | 0.525
NCI-H2085 | 0.745
Calu-6 | 0.453
HCC-366 | 0.357
NCI-H1666 | 0.732
NCI-H596 | 0.581
LK-2 | 0.694
NCI-H2087 | 0.584
NCI-H358 | 0.523
NCI-H2170 | 0.636
H3255 | 0.569
COR-L23 | 0.325

Cell Line | relative viability
COR-L 105 | 0.587
IA-LM | 0.72
LOU-NH91 | 0.961
ChaGo-K-1 | 0.383
NCI-H1793 | 0.751
NCI-H2405 | 0.928
HOP-62 | 0.386
HCC-44 | 1.03
A549 | 0.287
SK-MES-1 | 0.598
LU99A | 0.222
BEN | 0.943
HARA | 0.634
SW 900 | 0.801
HCC-78 | 0.9
NCI-H322M | 0.728
LCLC-97TM1 | 0.383
NCI-H2009 | 0.656
A-427 | 0.744
NCI-H441 | 0.514
NCI-H661 | 0.758
NCI-H1734 | 0.637
NCI-H460 | 0.368
NCI-H2347 | 0.584

Cell Line | relative viability
SK-LU-1 | 0.378
NCI-H1395 | 0.437
201T | 0.824
NCI-H1915 | 0.273
HCC-827 | 0.664
LXF-289 | 1.07
NCI-H23 | 0.309
NCI-H1299 | 0.936
NCI-H647 | 0.453
CAL-12T | 0.648
NCI-H1651 | 0.183
EPLC-272H | 0.452
NCI-H2228 | 0.385
NCI-H1792 | 0.408
NCI-H1355 | 0.643
NCI-H3122 | 0.683
NCI-H1437 | 0.543
NCI-H1755 | 0.893
NCI-H2023 | 0.524
HCC-15 | 0.68
PC-14 | 0.25
EKVX | 0.815
